The results in this text go back to article PMC9135253, “Potential of phenothiazines to synergistically block calmodulin and reactivate PP2A in cancer cells” (PLoS ONE, 2022).

Common to all, as to type: cell-based
Assay [1] has as its system pERK/ERK in MIA PaCa-2 cells. Description: Western blot of MAPK signaling output (pERK/ERK).
For a further assay, the system named is HEK-293 EBNA cells. Description: 2D cell viability assay (alamarBlue), HEK-293 EBNA. Conditions: 72 h.
In a further assay the test system is MIA PaCa-2 cells. Description: 2D cell viability assay (alamarBlue), MIA PaCa-2. The following applies: MIA PaCa-2, 72 h. A general note: The colour change of resazurin is a common sign of viable cells or microbes.
The next assay deals with MDA-MB-231 cells. The assay can be described thus: 2D cell viability assay (alamarBlue), MDA-MB-231. Conditions: MDA-MB-231, 72 h.
Assay [2] relates to H-RasG12V (Rluc8-/GFP2-tagged) in HEK-293 EBNA cells. The assay can be described thus: H-RasG12V nanoclustering-BRET assay.
The subject of assay [3] is K-RasG12V (Rluc8-/GFP2-tagged) in HEK-293 EBNA cells. Description: K-RasG12V nanoclustering-BRET assay. Background: Bioluminescence resonance energy transfer reports proximity on the nanometre scale.
The subject of assay [4] is c-MYC in MDA-MB-231 cells. Description: Western blot of c-MYC expression. The following applies: 24 h. Background: In western blotting, separated proteins are transferred to a membrane and probed.
Assay [5] concerns caspase-3/7 activity in MDA-MB-231 cells. Description: Caspase-3/7Glo assay. Conditions: 24 h. An excerpt:
Negative values (shaded red) indicate sensitivity of the cell line proliferation to the knockdown of shown genes, whereas positive scores (shaded blue) indicate insensitivity. (B) IC50 values for indicated compounds in Ras pathway mutant cell lines NCI-H358, MDA-MB231 and A375 grown as 3D spheroids under serum free conditions. […] Statistical comparisons were done using the average values across all three cell lines. […] Positive scores indicate synergistic drug interactions whereas negative scores would denote antagonistic drug interactions. A score of zero would indicate no antagonistic or synergistic effect. (D) Flow cytometric analysis of apoptosis in MDA-MB-231 cells. […] Benzethonium chloride and DMSO treated cells were used as positive and negative controls, respectively, for setting the gates. Percentage of total apoptotic cells (early and late stage) from two biological repeats (mean ± SD) is presented. Statistical analysis was performed using Fisher’s exact test comparing the total number of viable and apoptotic cells from two biological repeats. (E) Effect of inhibitors on cellular apoptosis studied using Caspase-3/7Glo assay. […] The caspase-3/7 activity was measured as a luminescence read-out and normalized to the vehicle control, 0.05% (v/v) DMSO. […] GAPDH detection was used as loading control.

[6] abbreviates: MIA PaCa-2 + EGF, same treatments, mean.
Setting [7] is: compounds 20 μM, FTI-277 1 μM, OphA 2.5 μM, 24 h, mean.

Values joined by “and” are separate entries in the source; they are usually repeats but may differ in a detail not shown here. Equal entries are not always repeated. Where two headings read alike, the source gives them in different places.

On to `C=CC(=O)N1CCN(c2nc(=O)n(-c3c(C)ccnc3C(C)C)c3nc(-c4c(O)cccc4F)c(F)cc23)[C@@H](C)C1` [AMG-510], for which the “potency relative to Flu-M in MAPK-signaling (pERK) inhibition” value in assay [1] (MIA PaCa-2) is “at least 20 times”. Further, the “normalized pERK/ERK ratio %” value was 29.0898% and 30.5706% and 27.2049% in assay [1] (MIA PaCa-2 + EGF, 2 h, trametinib 1 μM, AMG-510 1 μM, calmidazolium 20 μM, DT-061 20 μM, combination each 10 μM, fluphenazine mustard 20 μM, replicates N1-N3); 28.96% in assay [1] (setting [6]). The “2D monolayer DSS3” value in the assay with HEK-293 EBNA cells (Mean) was 15.93; with HEK-293 EBNA cells (replicates N1-N3), 22.8 and 12.8 and 12.2; with MIA PaCa-2 cells (Mean), 64.97; with MIA PaCa-2 cells (replicates N1-N3), 62.6 and 65 and 67.3; in the assay on MDA-MB-231 cells (Mean), 4.2; in the assay on MDA-MB-231 cells (replicates N1-N3), 1.7 and 3 and 7.9.

With `FC(F)(F)c1ccc2c(c1)N(CCCN1CCN(CCCl)CC1)c1ccccc1S2` [fluphenazine mustard], the “DSS3 BRET score” value in assay [2] (H-RasG12V nanoclustering-BRET dose response (0.1–80 μM; OphA 0.3–20 μM), replicates) was 13.1 and 5.3 and 9.9 and 9.6; in assay [2] (H-RasG12V nanoclustering-BRET, mean), 9.48; in assay [3] (K-RasG12V nanoclustering-BRET dose response (0.1–80 μM; OphA 0.3–20 μM), replicates) it was 17.9 and 3.8 and 4.3 and 7 and 12.9; in assay [3] (K-RasG12V nanoclustering-BRET, mean), 9.18. Further, the “H-RasG12V BRET” value in assay [2] (setting [7]) was 65.64. Further, the “normalized pERK/ERK ratio %” value in assay [1] was 46.7324% and 34.232% and 39.0258%; in assay [1] (setting [6]) it was 40%. The “2D monolayer DSS3” value with HEK-293 EBNA cells (Mean) was 5.4; in the assay with HEK-293 EBNA cells (replicates N1-N3), 6.1 and 5.1 and 5; in the assay on MIA PaCa-2 cells (Mean) it was 65.73; in the assay with MIA PaCa-2 cells (replicates N1-N3) it was 64.1 and 65.3 and 67.8; in the assay on MDA-MB-231 cells (Mean), 32.27; in the assay with MDA-MB-231 cells (replicates N1-N3), 27.5 and 31.9 and 37.4. The “effect on the RasG12V-BRET signals (in words)” value in assay [3] (K-RasG12V and H-RasG12V biosensors) is “even stronger effect than CMZ”. The “K-RasG12V BRET” value in assay [3] (setting [7]) is 72.64. Further, the c-MYC/Vinculin relative expression is 0.7502 and 0.7758 and 0.7975 and 1.298 in assay [4] (10 μM, MDA-MB-231, replicates N1-N4); 0.91 in assay [4] (10 μM, Mean (DMSO 1.78)); 1.798* and 1.478 and 1.405 and 0.9115 in assay [4] (20 μM, MDA-MB-231, replicates N1-N4, values marked * excluded); 1.26 in assay [4] (20 μM, Mean (DMSO 1.48)).

Turning to `CN[C@@H]1C[C@H]2O[C@@](C)([C@@H]1OC)n1c3ccccc3c3c4c(c5c6ccccc6n2c5c31)C(=O)NC4` [staurosporine], the “caspase 3/7 activity (fold change)” value in assay [5] (DT-061 5 μM, calmidazolium 5 μM, combination 5 μM each, staurosporine 1 μM, normalized to DMSO, replicates) was 5.7754 fold change and 5.5715 fold change and 6.4904 fold change and 6.254 fold change; in assay [5] (same treatments, mean), 6.02 fold change.
